What was measured:
Assay in all cases: relative viability (nuclei count vs DMSO), 5 days (fraction); higher = more cells survive
[1] = compound: Cn1cc(-c2cnc3ccc4ccc(CS(=O)(=O)NCc5ccccn5)cc4c(=O)c3c2)cn1 [MK-8033] + CS(=O)(=O)N1CCN(Cc2cc3nc(-c4cccc5[nH]ncc45)nc(N4CCOCC4)c3s2)CC1 [Pictilisib] (partner 1 µM)
Outline: (§1)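 Relative viability was taken as the ratio of nuclei in treated wells to nuclei in vehicle wells. Lung cancer cell lines in 1536-well plates received compounds by pin tool one day after seeding, either one drug alone or a fixed anchor-drug dose plus five library-drug doses (not always all listed) in √10 steps. Nuclei were counted on 4× images after 5 days of treatment, and values are medians of duplicate plates.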

[2] = compound: CC[C@@H](C)CNCC(=O)N1CCC2=C([C@@H]1COC3=CC=CC(=C3)C)C=CS2 [RU-SKI 43] + CS(=O)(=O)CCNCc1ccc(-c2ccc3ncnc(Nc4ccc(OCc5cccc(F)c5)c(Cl)c4)c3c2)o1 [Lapatinib] (partner 2 µM)
Outline: as §1

[3] = compound: CC[C@@H](C)CNCC(=O)N1CCC2=C([C@@H]1COC3=CC=CC(=C3)C)C=CS2 [RU-SKI 43] + CCNC(=O)c1noc(-c2cc(C(C)C)c(O)cc2O)c1-c1ccc(CN2CCOCC2)cc1 [Luminespib] (partner 0.01 µM)
Outline: as §1

[4] = compound: CC[C@@H](C)CNCC(=O)N1CCC2=C([C@@H]1COC3=CC=CC(=C3)C)C=CS2 [RU-SKI 43] + NC(=O)Nc1cc(-c2cccc(F)c2)sc1C(=O)N[C@H]1CCCNC1 [AZD7762] (partner 0.2 µM)
Outline: as §1

Row | Cell Line | relative viability ([1]; first compound 0.02 µM) | relative viability ([1]; first compound 0.06325 µM) | relative viability ([1]; first compound 0.2 µM) | relative viability ([1]; first compound 0.6325 µM) | relative viability ([1]; first compound 2 µM) | relative viability ([2]; first compound 0.1 µM) | relative viability ([2]; first compound 0.3162 µM) | relative viability ([2]; first compound 1 µM) | relative viability ([2]; first compound 3.162 µM) | relative viability ([2]; first compound 10 µM) | relative viability ([3]; first compound 0.1 µM) | relative viability ([3]; first compound 0.3162 µM) | relative viability ([3]; first compound 1 µM) | relative viability ([3]; first compound 3.162 µM) | relative viability ([3]; first compound 10 µM) | relative viability ([4]; first compound 0.1 µM) | relative viability ([4]; first compound 0.3162 µM) | relative viability ([4]; first compound 1 µM) | relative viability ([4]; first compound 3.162 µM) | relative viability ([4]; first compound 10 µM)
1 | HCC-15 | 0.829 | 0.632 | 0.698 | 0.767 | 0.754 | 0.906 | 1.16 | 1.04 | 0.787 | 0.717 | 0.427 | 0.249 | 0.478 | 0.285 | 0.419 | 1.12 | 1.17 | 1.15 | 1.24 | 1.19
2 | NCI-H1793 | 0.32 | – | 0.286 | 0.307 | 0.258 | 0.69 | 0.644 | 0.594 | 0.673 | 0.697 | 0.167 | 0.154 | 0.205 | 0.154 | 0.183 | 0.56 | 0.719 | 0.641 | 0.447 | 0.29
3 | H3255 | 0.558 | 0.299 | 0.48 | 0.577 | 0.441 | 0.249 | 0.193 | 0.174 | 0.192 | 0.213 | 0.928 | 0.951 | 1.23 | 0.76 | 0.849 | 0.843 | 1.02 | 1.03 | 0.839 | 0.873
4 | NCI-H1666 | 0.365 | 0.31 | 0.459 | 0.422 | 0.481 | 0.58 | 0.721 | 0.695 | 0.615 | 0.52 | 0.941 | 1.03 | 1.03 | 0.942 | 0.833 | 0.884 | 0.754 | 0.956 | 0.774 | 0.78
5 | 201T | 0.684 | 0.579 | 0.657 | 0.654 | 0.697 | 1.1 | 0.997 | 1.06 | 1.05 | 1.01 | 1.06 | 1.06 | 1.04 | 1.06 | 1.03 | 0.628 | 0.603 | 0.602 | 0.531 | 0.567
6 | LK-2 | 0.629 | 0.452 | 0.535 | 0.621 | 0.606 | 1.38 | 1.09 | 1.19 | 1.03 | 1.03 | 0.182 | 0.168 | 0.171 | 0.189 | 0.177 | 0.342 | 0.372 | 0.486 | 0.49 | 0.468

Reference: the supplement of paper PMC10307832
